Drawing on ChEMBL document CHEMBL3352777, “Substituted thieno[2,3-b]thiophenes and related congeners: Synthesis, β-glucuronidase inhibition activity, crystal structure, and POM analyses” (Bioorg Med Chem, 2014), this text covers inhibition and IC50 for 18 compounds.

Experiment [1] addresses Carbonic anhydrase (Homo sapiens) (UniProt P00918+P43166+P00915+P07451+P23280+O43570+Q9ULX7+Q16790+P22748+Q8N1Q1+Q9Y2D0+P35218). Nature of the experiment: Inhibition of carbonic anhydrase (unknown origin) at 500 uM. Type of experiment: protein assay.
The species entered for the next experiment is Homo sapiens. Nature of the experiment: Inhibition of alpha-chymotrypsin (unknown origin) using N-succinyl-L-phenylalanine-p-nitroanilide substrate at 500 uM.
Another experiment is described as follows: cells. The conditions noted are these: Homo sapiens, PC-3, 48 h.
Experiment [2] is described as follows: Inhibition of buttermilk xanthine oxidase (unknown origin) incubated for 10 mins by spectrophotometry.
Experiment [3] has as its target T1, Beta-glucuronidase (Homo sapiens) (UniProt P08236).
T1 sequence (whole entry): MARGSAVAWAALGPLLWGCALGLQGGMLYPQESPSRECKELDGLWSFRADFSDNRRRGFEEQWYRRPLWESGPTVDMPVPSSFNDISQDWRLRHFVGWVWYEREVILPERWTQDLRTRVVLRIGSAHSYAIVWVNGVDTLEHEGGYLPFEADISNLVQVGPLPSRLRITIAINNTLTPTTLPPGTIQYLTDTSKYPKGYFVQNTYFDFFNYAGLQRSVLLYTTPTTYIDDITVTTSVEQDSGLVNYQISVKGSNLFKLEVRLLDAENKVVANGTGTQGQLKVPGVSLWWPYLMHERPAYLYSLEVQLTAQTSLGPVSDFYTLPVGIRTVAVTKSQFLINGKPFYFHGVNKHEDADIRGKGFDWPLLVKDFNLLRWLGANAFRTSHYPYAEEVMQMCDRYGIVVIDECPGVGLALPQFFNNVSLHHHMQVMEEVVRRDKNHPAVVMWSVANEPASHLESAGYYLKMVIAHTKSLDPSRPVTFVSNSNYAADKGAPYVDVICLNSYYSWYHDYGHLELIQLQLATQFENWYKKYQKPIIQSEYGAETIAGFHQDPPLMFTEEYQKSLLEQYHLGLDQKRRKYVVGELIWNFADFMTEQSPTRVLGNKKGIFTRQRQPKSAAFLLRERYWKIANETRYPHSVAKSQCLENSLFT
The experiment is described as follows: Inhibition of beta-glucuronidase (unknown origin) at 500 uM using p-nitrophenyl-beta-D-glucuronide substrate incubated for 30 mins by spectrophotometry.

In the next experiment the target is Carbonic anhydrase. The experiment is described as follows: Inhibition of carbonic anhydrase (unknown origin). The format is protein assay, Homo sapiens.
Experiment [4] is described as follows: Inhibition of buttermilk xanthine oxidase (unknown origin) at 500 uM incubated for 10 mins by spectrophotometry.
A short description of experiment [5]: Inhibition of alpha-chymotrypsin (unknown origin) using N-succinyl-L-phenylalanine-p-nitroanilide substrate. The arrangement: species or system Homo sapiens.

Bounds are passed on as bounds.

Description for cells: Cytotoxic activity against human PC3 cells after 48 hrs by MTT assay

As for `CCOC(/C=C/C(=O)c1sc2sc(C(=O)/C=C/C(OCC)(OCC)OCC)c(-c3ccccc3)c2c1C)(OCC)OCC`, the inhibition (in experiment [1]; in the experiment listed under Homo sapiens) was below 50% throughout. In “cells”, this compound yielded a 50% inhibitory concentration (IC50) above 30 µM.
Turning to `Cc1c(C(=O)/C=C/N(C)C)sc2sc(C(=O)c3ccc(-c4sc5sc(C(=O)/C=C/N(C)C)c(-c6ccccc6)c5c4C)nc3)c(-c3ccccc3)c12`, the inhibition (in experiment [1]; in the experiment filed under Homo sapiens) was below 50% in each case. The same compound gave a concentration for half-maximal inhibition (IC50) in “cells” above 30 µM.
Turning to `CCOc1nc(-c2sc3sc(-c4ccc(C#N)c(OCC)n4)c(-c4ccccc4)c3c2C)ccc1C#N`, the inhibition (in experiment [1]; in the experiment filed under Homo sapiens) was below 50% throughout. For the same compound, the results for the concentration for half-maximal inhibition (IC50) (in experiment [2]; in “cells”) were 14.4 µM and above 30 µM, respectively.
`Oc1ncnc2[nH]ncc12` [ALLOPURINOL] gave an IC50 in experiment [2] of 2 µM.
`COc1cccc2c1C(=O)c1c(O)c3c(c(O)c1C2=O)C[C@@](O)(C(=O)CO)C[C@@H]3O[C@H]1C[C@H](N)[C@H](O)[C@H](C)O1` [DOXORUBICIN] showed an IC50 in “cells” of 0.912 µM.
As to `Cc1c(C(=O)/C=C/NO)sc2sc(C(=O)/C=C/NO)c(-c3ccccc3)c12`, in the experiment “cells”, the half-inhibitory concentration (IC50) is above 30 µM.
Regarding `CCOC(=O)c1nn(-c2ccccc2)cc1C(=O)c1sc2sc(C(=O)c3cn(-c4ccccc4)nc3C(=O)OCC)c(-c3ccccc3)c2c1C`, the inhibition (in the experiment listed under Homo sapiens; in experiment [3]) was below 50% throughout. The 50% inhibitory concentration (IC50) in the experiment “cells” was above 30 µM.
`CC(=C(C#N)C#N)c1sc2sc(C(C)=C(C#N)C#N)c(-c3ccccc3)c2c1C`: the results for the IC50 at Carbonic anhydrase and in the experiment “cells” were 441.72 µM and above 30 µM, respectively. In addition, the inhibition (in the experiment listed under Homo sapiens; in experiment [4]) was below 50% each time.
As to `Cc1c(C(=O)/C(C=O)=N/Nc2ccccc2)sc2sc(C(=O)/C(C=O)=N/Nc3ccccc3)c(-c3ccccc3)c12`, the inhibition (in experiment [1]; in the experiment listed under Homo sapiens; in experiment [4]) was below 50% throughout. In addition, the half-maximal inhibitory concentration (IC50) in the experiment “cells” was 13.8 µM.
On to `Cc1c(C(=O)/C=C/N(C)C)sc2sc(C(=O)/C=C/N(C)C)c(-c3ccccc3)c12`, for which the inhibition (in experiment [1]; in the experiment listed under Homo sapiens; in experiment [4]; in experiment [3]) was below 50% each time. The compound also gave an IC50 in the experiment “cells” above 30 µM.
With `Cc1c(-c2ccc(C(=O)O)c(=O)[nH]2)sc2sc(-c3ccc(C(=O)O)c(=O)[nH]3)c(-c3ccccc3)c12`, the inhibition (in experiment [1]; in the experiment listed under Homo sapiens; in experiment [4]) was below 50% in each case. This compound came in with a half-inhibitory concentration (IC50) in the experiment “cells” above 30 µM.
On to `Cc1c(C(=O)c2cc(C(=O)O)c(=O)[nH]n2)sc2sc(C(=O)c3cc(C(=O)O)c(=O)[nH]n3)c(-c3ccccc3)c12`, for which the inhibition (in experiment [1]; in the experiment filed under Homo sapiens) was below 50% in each case. In addition, the 50% inhibitory concentration (IC50) in experiment [2] is 121 µM; in the experiment “cells”, above 30 µM.
As to `Cc1c(-c2ccc(C#N)c(=O)[nH]2)sc2sc(-c3ccc(C#N)c(=O)[nH]3)c(-c3ccccc3)c12`, the IC50 against Carbonic anhydrase was 270.13 µM. In experiment [4], this compound displayed an inhibition below 50%.
In turn, `Cc1c(C(=O)c2cc(C#N)c(=N)n(-c3ccccc3)n2)sc2sc(C(=O)c3cc(C#N)c(=N)n(-c4ccccc4)n3)c(-c3ccccc3)c12` came in with a half-inhibitory concentration (IC50) in “cells” of 2.61 µM.
As for `CC(=O)c1ccc(-c2sc3sc(-c4ccc(C(C)=O)c(C)n4)c(-c4ccccc4)c3c2C)nc1C`, in experiment [1], the inhibition was below 50%. The half-maximal inhibitory concentration (IC50) in “cells” is above 30 µM.
On to `Cc1c(C(/C=C/N(C)C)=C(C#N)C#N)sc2sc(C(/C=C/N(C)C)=C(C#N)C#N)c(-c3ccccc3)c12`, for which the IC50 in experiment [5] is 202 µM; in the experiment “cells” it was above 30 µM.
In turn, `CC(C)C[C@H](NC(=O)[C@@H](NC(=O)N[C@@H](Cc1ccccc1)C(=O)O)C1CCNC(=N)N1)C(=O)N[C@H](C=O)Cc1ccccc1` (stereo partly drawn) [CHYMOSTATIN] returned a 50% inhibitory concentration (IC50) in experiment [5] of 5.7 µM.
In the case of `Cc1c(/C(=C/C=C(\C#N)C(N)=O)N(C)C)sc2sc(/C(=C/C=C(\C#N)C(N)=O)N(C)C)c(-c3ccccc3)c12`, the inhibition in experiment [1] was below 50%. For the same compound, the half-maximal inhibitory concentration (IC50) in experiment [2] is 43.1 µM; in the experiment “cells”, above 30 µM.

As usually defined, the inhibition is the change of the read-out against control, counted positive when it falls. High values mean a strong effect, low ones a weak effect. Broadly, the IC50 is the concentration that gives 50% inhibition. A high value points to weaker potency.
